According to US10960005B2, “Treatment of relapsed and/or refractory solid tumors and non-hodgkin's lymphomas” (CELGENE QUANTICEL RESEARCH, INC., priority 2016, dated 2021):
Read-outs that look alike come from different tables or passages of the source.

What was measured:
[1] = system: LXFS 573 SCLC patient-derived xenograft; type: in vivo
NCI-H1417 SCLC xenograft = type: in vivo
[2] = Etoposide at 24 mg/kg/day SC days 1-3 + Vehicle
[3] = etoposide monotherapy 24 mg/kg SC
[4] = etoposide monotherapy 24 mg/kg SC QD×3

For `COc1cc([C@@H]2c3cc4c(cc3[C@@H](O[C@@H]3O[C@@H]5CO[C@@H](C)O[C@H]5[C@H](O)[C@H]3O)[C@H]3COC(=O)[C@H]23)OCO4)cc(OC)c1O` [Etoposide, etoposide, reference compound], the “% TGD” value [1, 2] was 50%, the T-C [1, 2] was 21 days and the “median TTE” value [1, 2] was 63 days. The “SS (number of study survivors)” value ([1]; Etoposide at 24 mg/kg/day SC days 1-3 + Vehicle, Day 133, N=8) was 0 (na), the “% TGD” value [1, 3] was 50% and the TGD [1, 3] was 21 days. The “% TGD” value (NCI-H1417 SCLC xenograft; 24 mg/kg Etoposide SC QD × 3) was 92%, the T-C (NCI-H1417 SCLC xenograft; 24 mg/kg Etoposide SC QD × 3) was 24 days and the “median TTE” value (NCI-H1417 SCLC xenograft; 24 mg/kg Etoposide SC QD × 3) was 50 days. For the same compound, the “% TGD” value (NCI-H1417 SCLC xenograft; [4]) was 92% and the TGD (NCI-H1417 SCLC xenograft; [4]) was 24 days.
